Assay results as given in publication PMC6874179, “Development of Macrocycle Kinase Inhibitors for ALK2 Using Fibrodysplasia Ossificans Progressiva‐Derived Endothelial Cells” (JBMR Plus, 2019).

How the values were obtained:
ABL1_G250E = target: T1, ABL1_G250E (Homo sapiens, UniProt P00519, G250E); experiment: Proqinase Kinase profiling; format: biochemical; details: read-out: % inhibition at 100nM
T1 construct: purchased DiscoverX

PDK1 = target: T2, PDK1 (Homo sapiens, UniProt O15530); experiment: Proqinase Kinase profiling; format: biochemical; details: read-out: % inhibition at 100nM
T2 construct: purchased DiscoverX

NEK9 = target: T3, NEK9 (Homo sapiens, UniProt Q8TD19); experiment: Proqinase Kinase profiling; format: biochemical; details: read-out: % inhibition at 100nM
T3 construct: purchased DiscoverX

KIT_V559D_T670I = target: T4, KIT_V559D_T670I (Homo sapiens, UniProt P10721, T670I/V559D); experiment: Proqinase Kinase profiling; format: biochemical; details: read-out: % inhibition at 100nM
T4 construct: purchased DiscoverX

TSSK1B = target: T5, TSSK1B (Homo sapiens, UniProt Q9BXA7); experiment: Proqinase Kinase profiling; format: biochemical; details: read-out: % inhibition at 100nM
T5 construct: purchased DiscoverX

BMP-6-induced p-Smad1/5 = experiment: Western blot of p-Smad1/5 in KS483 cells; format: cell-based, mouse
Description: Compounds were added for 16 hours at 0.5μM before luciferase activity was measured.
Cells were seeded into 6-well plates and cultured till they reached confluence. Next, cells were stimulated as indicated and then washed with cold PBS. […] Electrophoresis was performed in 10% SDS/polyacrylamide gels. Separated proteins were transferred to nitrocellulose membranes (0.5 A at 100 V; in ice) for 1 hour. Blots were blocked in Tris-Buffered Saline solution containing 0.1% Tween 20 and 5% non-fat dry milk overnight at 4 °C, and immune-detection of specific proteins was carried out with primary antibodies (see above) followed by horseradish peroxidase-conjugated anti-mouse or anti-rabbit (GE Healthcare, Eindhoven, The Netherlands) secondary antibodies using an ECL system (Fisher Scientific, Landsmeer, The Netherlands).

RPS6KB2 = target: T6, RPS6KB2 (Homo sapiens, UniProt Q9UBS0); experiment: Proqinase Kinase profiling; format: biochemical; details: read-out: % inhibition at 100nM
T6 construct: purchased DiscoverX

IKBKB = target: T7, IKBKB (Homo sapiens, UniProt O14920); experiment: Proqinase Kinase profiling; format: biochemical; details: read-out: % inhibition at 100nM
T7 construct: purchased DiscoverX

EPHB2 = target: T8, EPHB2 (Homo sapiens, UniProt P29323); experiment: Proqinase Kinase profiling; format: biochemical; details: read-out: % inhibition at 100nM
T8 construct: purchased DiscoverX

MET_Y1230D = target: T9, MET_Y1230D (Homo sapiens, UniProt P08581, Y1230D); experiment: Proqinase Kinase profiling; format: biochemical; details: read-out: % inhibition at 100nM
T9 construct: purchased DiscoverX

MAP3K5 = target: T10, MAP3K5 (Homo sapiens, UniProt Q99683); experiment: Proqinase Kinase profiling; format: biochemical; details: read-out: % inhibition at 100nM
T10 construct: purchased DiscoverX

GRK7 = target: T11, GRK7 (Homo sapiens, UniProt Q8WTQ7); experiment: Proqinase Kinase profiling; format: biochemical; details: read-out: % inhibition at 100nM
T11 construct: purchased DiscoverX

GSK3A = target: T12, GSK3A (Homo sapiens, UniProt P49840); experiment: Proqinase Kinase profiling; format: biochemical; details: read-out: % inhibition at 100nM
T12 construct: purchased DiscoverX

DCLK2 = target: T13, DCLK2 (Homo sapiens, UniProt Q8N568); experiment: Proqinase Kinase profiling; format: biochemical; details: read-out: % inhibition at 100nM
T13 construct: purchased DiscoverX

HCK = target: T14, HCK (Homo sapiens, UniProt P08631); experiment: Proqinase Kinase profiling; format: biochemical; details: read-out: % inhibition at 100nM
T14 construct: purchased DiscoverX

MERTK = target: T15, MERTK (Homo sapiens, UniProt Q12866); experiment: Proqinase Kinase profiling; format: biochemical; details: read-out: % inhibition at 100nM
T15 construct: purchased DiscoverX

HIPK1 = target: T16, HIPK1 (Homo sapiens, UniProt Q86Z02); experiment: Proqinase Kinase profiling; format: biochemical; details: read-out: % inhibition at 100nM
T16 construct: purchased DiscoverX

CAMKK1 = target: T17, CAMKK1 (Homo sapiens, UniProt Q8N5S9); experiment: Proqinase Kinase profiling; format: biochemical; details: read-out: % inhibition at 100nM
T17 construct: purchased DiscoverX

RET = target: T18, RET (Homo sapiens, UniProt P07949); experiment: Proqinase Kinase profiling; format: biochemical; details: read-out: % inhibition at 100nM
T18 construct: purchased DiscoverX

ABL1 = target: T19, ABL1 (Homo sapiens, UniProt P00519); experiment: Proqinase Kinase profiling; format: biochemical; details: read-out: % inhibition at 100nM
T19 construct: purchased DiscoverX

AKT2 = target: T20, AKT2 (Homo sapiens, UniProt P31751); experiment: Proqinase Kinase profiling; format: biochemical; details: read-out: % inhibition at 100nM
T20 construct: purchased DiscoverX

PDGFRA = target: T21, PDGFRA (Homo sapiens, UniProt P16234); experiment: Proqinase Kinase profiling; format: biochemical; details: read-out: % inhibition at 100nM
T21 construct: purchased DiscoverX

RAF1 = target: T22, RAF1 (Homo sapiens, UniProt P04049); experiment: Proqinase Kinase profiling; format: biochemical; details: read-out: % inhibition at 100nM
T22 construct: purchased DiscoverX

PLK1 = target: T23, PLK1 (Homo sapiens, UniProt P53350); experiment: Proqinase Kinase profiling; format: biochemical; details: read-out: % inhibition at 100nM
T23 construct: purchased DiscoverX

INSR = target: T24, INSR (Homo sapiens, UniProt P06213); experiment: Proqinase Kinase profiling; format: biochemical; details: read-out: % inhibition at 100nM
T24 construct: purchased DiscoverX

IKBKE = target: T25, IKBKE (Homo sapiens, UniProt Q14164); experiment: Proqinase Kinase profiling; format: biochemical; details: read-out: % inhibition at 100nM
T25 construct: purchased DiscoverX

ZAP70 = target: T26, ZAP70 (Homo sapiens, UniProt P43403); experiment: Proqinase Kinase profiling; format: biochemical; details: read-out: % inhibition at 100nM
T26 construct: purchased DiscoverX

MAP3K7 = target: T27, MAP3K7 (Homo sapiens, UniProt O43318); experiment: Proqinase Kinase profiling; format: biochemical; details: read-out: % inhibition at 100nM
T27 construct: purchased DiscoverX

PRKCQ = target: T28, PRKCQ (Homo sapiens, UniProt Q04759); experiment: Proqinase Kinase profiling; format: biochemical; details: read-out: % inhibition at 100nM
T28 construct: purchased DiscoverX

CDK1_cyclinE1 = target: T29, CDK1_cyclinE1 (Homo sapiens, UniProt P06493); experiment: Proqinase Kinase profiling; format: biochemical; details: read-out: % inhibition at 100nM
T29 construct: purchased DiscoverX

ACVR2A = target: T30, ACVR2A (Homo sapiens, UniProt P27037); experiment: Proqinase Kinase profiling; format: biochemical; details: read-out: % inhibition at 100nM
T30 construct: T7 phage fusion (or DNA tag for qPCR if made in HEK-293); purchased DiscoverX; host or cells: E. coli (T7 phage) or HEK-293

KIT_T670I = target: T31, KIT_T670I (Homo sapiens, UniProt P10721, T670I); experiment: Proqinase Kinase profiling; format: biochemical; details: read-out: % inhibition at 100nM
T31 construct: purchased DiscoverX

DYRK1B = target: T32, DYRK1B (Homo sapiens, UniProt Q9Y463); experiment: Proqinase Kinase profiling; format: biochemical; details: read-out: % inhibition at 100nM
T32 construct: purchased DiscoverX

AKT3 = target: T33, AKT3 (Homo sapiens, UniProt Q9Y243); experiment: Proqinase Kinase profiling; format: biochemical; details: read-out: % inhibition at 100nM
T33 construct: purchased DiscoverX

CDK5_p25 = target: T34, CDK5_p25 (Homo sapiens, UniProt Q00535); experiment: Proqinase Kinase profiling; format: biochemical; details: read-out: % inhibition at 100nM
T34 construct: purchased DiscoverX

RPS6KA1 = target: T35, RPS6KA1 (Homo sapiens, UniProt Q15418); experiment: Proqinase Kinase profiling; format: biochemical; details: read-out: % inhibition at 100nM
T35 construct: purchased DiscoverX

RPS6KA4 = target: T36, RPS6KA4 (Homo sapiens, UniProt O75676); experiment: Proqinase Kinase profiling; format: biochemical; details: read-out: % inhibition at 100nM
T36 construct: purchased DiscoverX

PAK1 = target: T37, PAK1 (Homo sapiens, UniProt Q13153); experiment: Proqinase Kinase profiling; format: biochemical; details: read-out: % inhibition at 100nM
T37 construct: purchased DiscoverX
T37 sequence (Q13153 whole entry): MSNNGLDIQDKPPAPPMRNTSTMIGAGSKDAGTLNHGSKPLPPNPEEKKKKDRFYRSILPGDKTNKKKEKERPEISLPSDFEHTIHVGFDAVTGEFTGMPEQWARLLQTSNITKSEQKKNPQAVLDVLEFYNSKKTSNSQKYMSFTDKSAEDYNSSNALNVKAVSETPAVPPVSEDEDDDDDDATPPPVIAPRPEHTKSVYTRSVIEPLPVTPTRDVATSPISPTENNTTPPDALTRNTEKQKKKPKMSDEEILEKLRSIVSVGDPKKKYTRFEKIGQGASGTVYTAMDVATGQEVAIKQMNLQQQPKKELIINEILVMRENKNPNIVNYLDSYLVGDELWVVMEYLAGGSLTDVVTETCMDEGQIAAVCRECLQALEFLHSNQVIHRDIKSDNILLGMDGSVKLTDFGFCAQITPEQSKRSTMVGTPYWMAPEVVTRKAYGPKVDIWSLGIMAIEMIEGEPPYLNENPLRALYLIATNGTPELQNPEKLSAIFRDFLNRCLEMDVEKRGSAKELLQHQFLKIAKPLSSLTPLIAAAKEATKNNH

T23 sequence (P53350 whole entry): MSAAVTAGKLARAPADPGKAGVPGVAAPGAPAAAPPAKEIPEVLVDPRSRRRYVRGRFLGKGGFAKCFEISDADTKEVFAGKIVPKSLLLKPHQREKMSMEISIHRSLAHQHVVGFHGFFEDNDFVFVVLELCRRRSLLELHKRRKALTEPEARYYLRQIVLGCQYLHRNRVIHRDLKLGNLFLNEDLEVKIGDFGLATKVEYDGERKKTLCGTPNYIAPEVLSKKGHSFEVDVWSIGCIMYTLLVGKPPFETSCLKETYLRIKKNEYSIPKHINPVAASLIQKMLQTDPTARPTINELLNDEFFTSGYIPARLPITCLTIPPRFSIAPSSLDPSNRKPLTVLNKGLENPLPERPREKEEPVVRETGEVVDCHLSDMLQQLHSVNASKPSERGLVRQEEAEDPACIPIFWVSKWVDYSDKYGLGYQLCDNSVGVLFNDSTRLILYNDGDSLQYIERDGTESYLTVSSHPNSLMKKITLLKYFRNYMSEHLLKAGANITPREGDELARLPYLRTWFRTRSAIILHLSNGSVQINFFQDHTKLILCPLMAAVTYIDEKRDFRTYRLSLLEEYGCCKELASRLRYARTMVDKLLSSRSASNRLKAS
T24 sequence (P06213 28-1382): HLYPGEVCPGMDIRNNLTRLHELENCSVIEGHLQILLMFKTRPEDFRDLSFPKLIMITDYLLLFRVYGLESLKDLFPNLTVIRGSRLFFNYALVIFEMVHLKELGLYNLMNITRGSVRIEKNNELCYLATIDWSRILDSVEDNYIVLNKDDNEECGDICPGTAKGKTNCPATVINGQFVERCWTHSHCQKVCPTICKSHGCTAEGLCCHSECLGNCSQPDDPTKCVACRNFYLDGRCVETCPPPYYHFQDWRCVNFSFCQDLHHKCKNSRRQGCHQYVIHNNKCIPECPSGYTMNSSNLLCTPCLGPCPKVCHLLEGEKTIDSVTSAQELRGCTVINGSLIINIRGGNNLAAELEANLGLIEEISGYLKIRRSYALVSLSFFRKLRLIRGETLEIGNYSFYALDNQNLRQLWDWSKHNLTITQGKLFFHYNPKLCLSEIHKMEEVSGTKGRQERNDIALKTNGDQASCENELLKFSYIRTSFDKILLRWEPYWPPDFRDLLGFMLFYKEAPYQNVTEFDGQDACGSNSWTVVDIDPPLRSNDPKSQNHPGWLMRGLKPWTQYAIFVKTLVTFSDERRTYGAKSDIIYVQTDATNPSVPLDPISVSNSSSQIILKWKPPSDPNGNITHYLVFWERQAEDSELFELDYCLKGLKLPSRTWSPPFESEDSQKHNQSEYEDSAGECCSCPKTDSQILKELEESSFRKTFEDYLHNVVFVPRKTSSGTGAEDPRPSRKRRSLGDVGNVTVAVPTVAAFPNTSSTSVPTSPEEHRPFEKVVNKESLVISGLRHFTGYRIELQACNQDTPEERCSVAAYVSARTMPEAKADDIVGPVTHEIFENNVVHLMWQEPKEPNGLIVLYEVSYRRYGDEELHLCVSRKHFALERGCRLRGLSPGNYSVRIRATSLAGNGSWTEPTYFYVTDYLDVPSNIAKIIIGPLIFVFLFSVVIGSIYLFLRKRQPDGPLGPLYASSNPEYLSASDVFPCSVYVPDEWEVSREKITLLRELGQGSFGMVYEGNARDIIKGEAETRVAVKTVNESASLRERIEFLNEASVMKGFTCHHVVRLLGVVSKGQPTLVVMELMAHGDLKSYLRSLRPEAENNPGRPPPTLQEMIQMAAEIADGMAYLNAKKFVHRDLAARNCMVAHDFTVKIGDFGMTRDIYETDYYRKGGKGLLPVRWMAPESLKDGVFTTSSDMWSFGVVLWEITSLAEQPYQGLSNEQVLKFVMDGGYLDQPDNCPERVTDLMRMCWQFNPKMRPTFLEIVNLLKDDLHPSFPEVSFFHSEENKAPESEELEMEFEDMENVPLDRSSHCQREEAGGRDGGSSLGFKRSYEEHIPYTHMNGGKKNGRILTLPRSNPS
T33 sequence (Q9Y243 whole entry): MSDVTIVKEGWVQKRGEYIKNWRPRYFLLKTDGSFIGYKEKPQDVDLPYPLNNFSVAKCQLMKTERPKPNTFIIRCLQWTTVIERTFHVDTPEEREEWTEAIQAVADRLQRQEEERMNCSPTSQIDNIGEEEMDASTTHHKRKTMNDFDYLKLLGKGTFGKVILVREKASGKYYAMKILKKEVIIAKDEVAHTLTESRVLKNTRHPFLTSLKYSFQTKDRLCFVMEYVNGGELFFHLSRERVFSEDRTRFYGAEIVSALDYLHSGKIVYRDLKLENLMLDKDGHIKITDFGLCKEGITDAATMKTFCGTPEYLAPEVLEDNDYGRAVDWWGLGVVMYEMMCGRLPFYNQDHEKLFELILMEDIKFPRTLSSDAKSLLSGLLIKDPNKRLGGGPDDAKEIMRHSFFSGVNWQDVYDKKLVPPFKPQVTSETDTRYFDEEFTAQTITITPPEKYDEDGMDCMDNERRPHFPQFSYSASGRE
T15 sequence (Q12866 21-999): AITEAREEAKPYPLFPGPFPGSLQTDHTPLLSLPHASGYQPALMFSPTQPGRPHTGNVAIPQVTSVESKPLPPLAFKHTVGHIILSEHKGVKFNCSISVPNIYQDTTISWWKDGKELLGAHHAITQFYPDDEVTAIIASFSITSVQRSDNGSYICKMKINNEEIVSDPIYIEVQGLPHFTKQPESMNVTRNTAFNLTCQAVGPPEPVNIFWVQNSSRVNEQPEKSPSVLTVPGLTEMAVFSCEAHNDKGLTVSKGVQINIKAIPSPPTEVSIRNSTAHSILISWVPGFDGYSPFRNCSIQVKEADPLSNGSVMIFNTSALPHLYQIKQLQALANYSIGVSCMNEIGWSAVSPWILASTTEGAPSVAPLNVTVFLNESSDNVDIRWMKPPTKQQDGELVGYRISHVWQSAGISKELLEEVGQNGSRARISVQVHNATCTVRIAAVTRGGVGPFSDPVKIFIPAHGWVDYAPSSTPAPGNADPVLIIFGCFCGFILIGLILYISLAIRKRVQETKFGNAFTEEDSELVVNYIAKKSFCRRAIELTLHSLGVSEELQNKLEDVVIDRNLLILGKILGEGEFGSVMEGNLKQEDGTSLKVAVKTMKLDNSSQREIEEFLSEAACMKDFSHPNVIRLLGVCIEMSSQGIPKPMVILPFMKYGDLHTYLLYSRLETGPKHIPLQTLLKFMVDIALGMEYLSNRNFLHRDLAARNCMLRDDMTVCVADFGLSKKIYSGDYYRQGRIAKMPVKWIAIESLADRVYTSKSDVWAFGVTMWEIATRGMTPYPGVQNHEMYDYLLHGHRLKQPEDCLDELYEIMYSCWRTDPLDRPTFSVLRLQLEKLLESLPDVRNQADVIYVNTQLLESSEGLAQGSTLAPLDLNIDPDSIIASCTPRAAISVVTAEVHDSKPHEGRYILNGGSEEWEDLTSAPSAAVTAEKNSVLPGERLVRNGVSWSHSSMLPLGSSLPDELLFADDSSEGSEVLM
T13 sequence (Q8N568 whole entry): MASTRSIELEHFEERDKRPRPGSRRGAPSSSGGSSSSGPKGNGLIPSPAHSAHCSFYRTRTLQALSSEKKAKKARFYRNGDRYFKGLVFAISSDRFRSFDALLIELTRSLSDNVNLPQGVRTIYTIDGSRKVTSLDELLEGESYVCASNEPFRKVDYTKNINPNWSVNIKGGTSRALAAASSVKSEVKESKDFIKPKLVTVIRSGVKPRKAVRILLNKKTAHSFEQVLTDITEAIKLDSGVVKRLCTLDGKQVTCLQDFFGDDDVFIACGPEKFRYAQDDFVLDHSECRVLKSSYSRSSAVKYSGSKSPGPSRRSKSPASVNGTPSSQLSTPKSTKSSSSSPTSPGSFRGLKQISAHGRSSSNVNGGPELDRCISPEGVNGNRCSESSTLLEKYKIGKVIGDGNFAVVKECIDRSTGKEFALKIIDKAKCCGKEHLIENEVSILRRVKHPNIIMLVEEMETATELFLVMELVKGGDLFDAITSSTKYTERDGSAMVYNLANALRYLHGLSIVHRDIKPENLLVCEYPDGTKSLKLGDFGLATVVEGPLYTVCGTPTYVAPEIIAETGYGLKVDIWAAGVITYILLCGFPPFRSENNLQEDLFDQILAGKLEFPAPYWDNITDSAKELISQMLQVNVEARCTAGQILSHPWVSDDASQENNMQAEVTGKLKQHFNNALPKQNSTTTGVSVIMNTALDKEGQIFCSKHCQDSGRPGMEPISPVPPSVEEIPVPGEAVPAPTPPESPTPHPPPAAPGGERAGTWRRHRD
T27 sequence (O43318 1-303 limits assumed): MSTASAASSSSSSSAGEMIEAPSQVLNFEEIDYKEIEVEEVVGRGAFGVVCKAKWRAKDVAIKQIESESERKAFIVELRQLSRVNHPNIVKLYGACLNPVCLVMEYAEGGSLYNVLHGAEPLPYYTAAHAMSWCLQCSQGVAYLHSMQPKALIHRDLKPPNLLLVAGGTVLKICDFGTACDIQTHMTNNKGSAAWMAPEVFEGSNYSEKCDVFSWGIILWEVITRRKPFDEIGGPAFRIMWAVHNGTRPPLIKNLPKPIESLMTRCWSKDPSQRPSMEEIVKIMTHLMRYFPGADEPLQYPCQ

Row | Compound | inhibition at 0.1 µM (ABL1_G250E) [%] | inhibition at 0.1 µM (PDK1) [%] | inhibition at 0.1 µM (NEK9) [%] | inhibition at 0.1 µM (KIT_V559D_T670I) [%] | inhibition at 0.1 µM (TSSK1B) [%] | Inhibition of BMP-6-induced p-Smad1/5 (BMP-6-induced p-Smad1/5) | inhibition at 0.1 µM (RPS6KB2) [%] | inhibition at 0.1 µM (IKBKB) [%] | inhibition at 0.1 µM (EPHB2) [%] | inhibition at 0.1 µM (MET_Y1230D) [%] | inhibition at 0.1 µM (MAP3K5) [%] | inhibition at 0.1 µM (GRK7) [%] | inhibition at 0.1 µM (GSK3A) [%] | inhibition at 0.1 µM (DCLK2) [%] | inhibition at 0.1 µM (HCK) [%] | inhibition at 0.1 µM (MERTK) [%] | inhibition at 0.1 µM (HIPK1) [%] | inhibition at 0.1 µM (CAMKK1) [%] | inhibition at 0.1 µM (RET) [%] | inhibition at 0.1 µM (ABL1) [%] | other results
1 | Clc1cc2cc(c1)-c1cnn3ccc(nc13)NCCOCCO2 [OD36] | 5 | 4 | 1 | 7 | 9 | efficiently inhibited | 11 | 1 | -2 | -6 | 13 | 6 | 6 | 11 | 29 | 15 | 8 | 20 | 27 | 3 | inhibition at 0.1 µM (AKT2): 2%; inhibition at 0.1 µM (PDGFRA): 29%; inhibition at 0.1 µM (RAF1): 2%; inhibition at 0.1 µM (PLK1): 7%; inhibition at 0.1 µM (INSR): 6%; inhibition at 0.1 µM (IKBKE): 6%; inhibition at 0.1 µM (ZAP70): -3%; inhibition at 0.1 µM (MAP3K7): 3%; inhibition at 0.1 µM (PRKCQ): 12%; inhibition at 0.1 µM (CDK1_cyclinE1): 8%; inhibition at 0.1 µM (ACVR2A): 15%; inhibition at 0.1 µM (KIT_T670I): 9%; inhibition at 0.1 µM (DYRK1B): 13%; inhibition at 0.1 µM (AKT3): -1%; inhibition at 0.1 µM (CDK5_p25): 10%; inhibition at 0.1 µM (RPS6KA1): 9%; inhibition at 0.1 µM (RPS6KA4): 19%; inhibition at 0.1 µM (PAK1): 18%
2 | Cc1cc2cc(c1)-c1cnn3ccc(nc13)NCCNC(=O)CCN(C)C2 [OD52] | 6 | -7 | -1 | -8 | -5 | efficiently inhibited | 4 | -3 | 15 | -12 | -12 | 12 | 1 | 7 | 0 | -10 | 0 | -8 | 28 | 0 | inhibition at 0.1 µM (AKT2): -9%; inhibition at 0.1 µM (PDGFRA): -12%; inhibition at 0.1 µM (RAF1): -1%; inhibition at 0.1 µM (PLK1): -1%; inhibition at 0.1 µM (INSR): -4%; inhibition at 0.1 µM (IKBKE): -21%; inhibition at 0.1 µM (ZAP70): -13%; inhibition at 0.1 µM (MAP3K7): -6%; inhibition at 0.1 µM (PRKCQ): -2%; inhibition at 0.1 µM (CDK1_cyclinE1): -2%; inhibition at 0.1 µM (ACVR2A): 14%; inhibition at 0.1 µM (KIT_T670I): -23%; inhibition at 0.1 µM (DYRK1B): -6%; inhibition at 0.1 µM (AKT3): 2%; inhibition at 0.1 µM (CDK5_p25): -2%; inhibition at 0.1 µM (RPS6KA1): 10%; inhibition at 0.1 µM (RPS6KA4): -8%; inhibition at 0.1 µM (PAK1): -1%
